Source: ChEMBL document CHEMBL1201862, “PubChem BioAssay data set” (2004)
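Interpolation was linear, between the two tested concentrations surrounding the appropriate level; five concentrations were tested over 48 hours in 96-well plates. GI50 marks 50% less growth.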 Activity calls are given as the source filed them. Rule as the data show it: active = GI50 up to about 1.1 µM and inactive = higher.

Columns and labels:
Assay in all cases: inhibition of tumour cell growth, NCI panel, 48 h
UO-31 = test system: UO-31
HT-29 = test system: HT-29
OVCAR-3 = test system: OVCAR-3
NCI/ADR-RES = test system: NCI/ADR-RES
NCI-H460 = test system: NCI-H460
CAKI-1 = test system: CAKI-1
SK-MEL-5 = test system: SK-MEL-5
SK-MEL-2 = test system: SK-MEL-2
HCT-15 = test system: HCT-15
SK-MEL-28 = test system: SK-MEL-28
SF-268 = test system: SF-268
LOX IMVI = test system: LOX IMVI
K562 = test system: K562
MDA-N = test system: MDA-N
HCT-116 = test system: HCT-116
ACHN = test system: ACHN
HL-60 = test system: HL-60
COLO 205 = test system: COLO 205
SF-295 = test system: SF-295
T47D = test system: T47D
Hs-578T = test system: Hs-578T
CCRF-CEM = test system: CCRF-CEM
EKVX = test system: EKVX
SW-620 = test system: SW-620
NCI-H226 = test system: NCI-H226
PC-3 = test system: PC-3
SK-OV-3 = test system: SK-OV-3
A549 = test system: A549
MCF7 = test system: MCF7
U-251 = test system: U-251
MDA-MB-231 = test system: MDA-MB-231
OVCAR-8 = test system: OVCAR-8
RXF 393 = test system: RXF 393
M14 = test system: M14
SR = test system: SR
BT-549 = test system: BT-549
786-0 = test system: 786-0
KM12 = test system: KM12
NCI-H23 = test system: NCI-H23
HCC 2998 = test system: HCC 2998
NCI-H522 = test system: NCI-H522
UACC-257 = test system: UACC-257
OVCAR-4 = test system: OVCAR-4
IGROV-1 = test system: IGROV-1
Malme-3M = test system: Malme-3M
SNB-75 = test system: SNB-75
TK-10 = test system: TK-10
SNB-19 = test system: SNB-19
RPMI-8226 = test system: RPMI-8226
OVCAR-5 = test system: OVCAR-5
MDA-MB-435 = test system: MDA-MB-435
SN12C = test system: SN12C
HOP-92 = test system: HOP-92
UACC-62 = test system: UACC-62
DU-145 = test system: DU-145
HOP-62 = test system: HOP-62
SF-539 = test system: SF-539
MOLT-4 = test system: MOLT-4

**Q.** Which GI50 (UO-31) does the source give for `CC(=O)Nc1ccc(CNc2cc(=O)n(C)c(=O)[nH]2)cc1` here?
**A.** > 100 µM (inactive)

**Q.** What about the GI50 (HT-29) of the same molecule?
**A.** > 100 µM (inactive)

**Q.** And the GI50 (OVCAR-3)?
**A.** > 100 µM (inactive)

**Q.** What about the GI50 (NCI/ADR-RES) of the same molecule?
**A.** > 100 µM (inactive)

**Q.** And the GI50 (NCI-H460)?
**A.** > 100 µM (inactive)

**Q.** What about the GI50 (CAKI-1) of the same molecule?
**A.** > 100 µM (inactive)

**Q.** And the GI50 (SK-MEL-5)?
**A.** > 100 µM (inactive)

**Q.** And the GI50 (SK-MEL-2)?
**A.** > 100 µM (inactive)

**Q.** What about the GI50 (HCT-15) of the same molecule?
**A.** > 100 µM

**Q.** And the GI50 (SK-MEL-28)?
**A.** > 100 µM (inactive)

**Q.** And the GI50 (SF-268)?
**A.** > 100 µM (inactive)

**Q.** What about the GI50 (LOX IMVI) of the same molecule?
**A.** > 100 µM (inactive)

**Q.** And the GI50 (K562)?
**A.** > 100 µM (inactive)

**Q.** And the GI50 (MDA-N)?
**A.** > 100 µM (inactive)

**Q.** And the GI50 (HCT-116)?
**A.** > 100 µM (inactive)

**Q.** What about the GI50 (ACHN) of the same molecule?
**A.** > 100 µM (inactive)

**Q.** What about the GI50 (HL-60) of the same molecule?
**A.** > 100 µM (inactive)

**Q.** What about the GI50 (COLO 205) of the same molecule?
**A.** > 100 µM (inactive)

**Q.** What about the GI50 (SF-295) of the same molecule?
**A.** > 100 µM (inactive)

**Q.** And the GI50 (T47D)?
**A.** > 100 µM (inactive)

**Q.** And the GI50 (Hs-578T)?
**A.** > 100 µM (inactive)

**Q.** And the GI50 (CCRF-CEM)?
**A.** > 100 µM (inactive)

**Q.** And the GI50 (EKVX)?
**A.** > 100 µM (inactive)

**Q.** What about the GI50 (SW-620) of the same molecule?
**A.** > 100 µM (inactive)

**Q.** And the GI50 (NCI-H226)?
**A.** > 100 µM (inactive)

**Q.** And the GI50 (PC-3)?
**A.** > 100 µM (inactive)

**Q.** What about the GI50 (SK-OV-3) of the same molecule?
**A.** > 100 µM (inactive)

**Q.** What about the GI50 (A549) of the same molecule?
**A.** > 100 µM (inactive)

**Q.** What about the GI50 (MCF7) of the same molecule?
**A.** > 100 µM (inactive)

**Q.** And the GI50 (U-251)?
**A.** > 100 µM (inactive)

**Q.** What about the GI50 (MDA-MB-231) of the same molecule?
**A.** > 100 µM (inactive)

**Q.** What about the GI50 (OVCAR-8) of the same molecule?
**A.** > 100 µM (inactive)

**Q.** And the GI50 (RXF 393)?
**A.** > 100 µM (inactive)

**Q.** And the GI50 (M14)?
**A.** > 100 µM (inactive)

**Q.** What about the GI50 (SR) of the same molecule?
**A.** > 100 µM (inactive)

**Q.** What about the GI50 (BT-549) of the same molecule?
**A.** > 100 µM (inactive)

**Q.** And the GI50 (786-0)?
**A.** > 100 µM (inactive)

**Q.** What about the GI50 (KM12) of the same molecule?
**A.** > 100 µM (inactive)

**Q.** What about the GI50 (NCI-H23) of the same molecule?
**A.** > 100 µM (inactive)

**Q.** And the GI50 (HCC 2998)?
**A.** > 100 µM (inactive)

**Q.** And the GI50 (NCI-H522)?
**A.** > 100 µM (inactive)

**Q.** What about the GI50 (UACC-257) of the same molecule?
**A.** > 100 µM (inactive)

**Q.** And the GI50 (OVCAR-4)?
**A.** > 100 µM (inactive)

**Q.** What about the GI50 (IGROV-1) of the same molecule?
**A.** > 100 µM (inactive)

**Q.** What about the GI50 (Malme-3M) of the same molecule?
**A.** > 100 µM (inactive)

**Q.** And the GI50 (SNB-75)?
**A.** > 100 µM (inactive)

**Q.** And the GI50 (TK-10)?
**A.** > 100 µM (inactive)

**Q.** And the GI50 (SNB-19)?
**A.** > 100 µM (inactive)

**Q.** What about the GI50 (RPMI-8226) of the same molecule?
**A.** > 100 µM (inactive)

**Q.** What about the GI50 (OVCAR-5) of the same molecule?
**A.** > 100 µM (inactive)

**Q.** And the GI50 (MDA-MB-435)?
**A.** > 100 µM (inactive)

**Q.** What about the GI50 (SN12C) of the same molecule?
**A.** > 100 µM (inactive)

**Q.** And the GI50 (HOP-92)?
**A.** > 100 µM (inactive)

**Q.** What about the GI50 (UACC-62) of the same molecule?
**A.** > 100 µM (inactive)

**Q.** What about the GI50 (DU-145) of the same molecule?
**A.** > 100 µM (inactive)

**Q.** What about the GI50 (HOP-62) of the same molecule?
**A.** > 100 µM (inactive)

**Q.** What about the GI50 (SF-539) of the same molecule?
**A.** > 100 µM (inactive)

**Q.** What about the GI50 (MOLT-4) of the same molecule?
**A.** > 100 µM (inactive)

**Q.** How did the GI50 (UO-31) turn out when `COC(=O)[C@@H]1Cc2ccc(OC)c(c2)OCCC(=O)N1` was run?
**A.** > 100 µM (inactive)

**Q.** And the GI50 (HT-29)?
**A.** > 100 µM (inactive)

**Q.** And the GI50 (OVCAR-3)?
**A.** > 100 µM (inactive)

**Q.** And the GI50 (NCI/ADR-RES)?
**A.** > 100 µM (inactive)

**Q.** And the GI50 (CAKI-1)?
**A.** > 100 µM (inactive)

**Q.** What about the GI50 (SK-MEL-5) of the same molecule?
**A.** > 100 µM (inactive)

**Q.** And the GI50 (SK-MEL-2)?
**A.** > 100 µM (inactive)

**Q.** And the GI50 (HCT-15)?
**A.** > 100 µM

**Q.** What about the GI50 (SK-MEL-28) of the same molecule?
**A.** > 100 µM (inactive)

**Q.** What about the GI50 (SF-268) of the same molecule?
**A.** > 100 µM (inactive)

**Q.** And the GI50 (K562)?
**A.** > 100 µM (inactive)

**Q.** What about the GI50 (MDA-N) of the same molecule?
**A.** > 100 µM (inactive)

**Q.** What about the GI50 (HCT-116) of the same molecule?
**A.** > 100 µM (inactive)

**Q.** And the GI50 (ACHN)?
**A.** > 100 µM (inactive)

**Q.** What about the GI50 (COLO 205) of the same molecule?
**A.** > 100 µM (inactive)

**Q.** And the GI50 (SF-295)?
**A.** > 100 µM (inactive)

**Q.** And the GI50 (T47D)?
**A.** > 100 µM (inactive)

**Q.** And the GI50 (Hs-578T)?
**A.** > 100 µM (inactive)

**Q.** And the GI50 (CCRF-CEM)?
**A.** > 100 µM (inactive)

**Q.** And the GI50 (EKVX)?
**A.** > 100 µM (inactive)

**Q.** And the GI50 (SW-620)?
**A.** > 100 µM (inactive)

**Q.** And the GI50 (NCI-H226)?
**A.** > 100 µM (inactive)

**Q.** And the GI50 (PC-3)?
**A.** > 100 µM (inactive)

**Q.** And the GI50 (SK-OV-3)?
**A.** > 100 µM (inactive)

**Q.** And the GI50 (A549)?
**A.** > 100 µM (inactive)

**Q.** And the GI50 (MCF7)?
**A.** > 100 µM (inactive)

**Q.** And the GI50 (U-251)?
**A.** > 100 µM (inactive)

**Q.** What about the GI50 (MDA-MB-231) of the same molecule?
**A.** > 100 µM (inactive)

**Q.** What about the GI50 (OVCAR-8) of the same molecule?
**A.** > 100 µM (inactive)

**Q.** What about the GI50 (RXF 393) of the same molecule?
**A.** > 100 µM (inactive)

**Q.** And the GI50 (M14)?
**A.** > 100 µM (inactive)

**Q.** What about the GI50 (SR) of the same molecule?
**A.** 32.6 µM (inactive)

**Q.** And the GI50 (BT-549)?
**A.** > 100 µM (inactive)

**Q.** What about the GI50 (786-0) of the same molecule?
**A.** > 100 µM (inactive)

**Q.** What about the GI50 (KM12) of the same molecule?
**A.** > 100 µM (inactive)

**Q.** And the GI50 (NCI-H23)?
**A.** > 100 µM (inactive)

**Q.** And the GI50 (HCC 2998)?
**A.** > 100 µM (inactive)

**Q.** And the GI50 (NCI-H522)?
**A.** > 100 µM (inactive)

**Q.** What about the GI50 (UACC-257) of the same molecule?
**A.** > 100 µM (inactive)

**Q.** And the GI50 (OVCAR-4)?
**A.** > 100 µM (inactive)

**Q.** And the GI50 (IGROV-1)?
**A.** 3.14 µM (inactive)

**Q.** What about the GI50 (Malme-3M) of the same molecule?
**A.** > 100 µM (inactive)

**Q.** And the GI50 (SNB-75)?
**A.** > 100 µM (inactive)

**Q.** What about the GI50 (TK-10) of the same molecule?
**A.** > 100 µM (inactive)

**Q.** What about the GI50 (SNB-19) of the same molecule?
**A.** > 100 µM (inactive)

**Q.** What about the GI50 (RPMI-8226) of the same molecule?
**A.** > 100 µM (inactive)

**Q.** What about the GI50 (OVCAR-5) of the same molecule?
**A.** > 100 µM (inactive)

**Q.** And the GI50 (MDA-MB-435)?
**A.** > 100 µM (inactive)

**Q.** What about the GI50 (UACC-62) of the same molecule?
**A.** > 100 µM (inactive)

**Q.** And the GI50 (DU-145)?
**A.** > 100 µM (inactive)

**Q.** What about the GI50 (HOP-62) of the same molecule?
**A.** > 100 µM (inactive)

**Q.** And the GI50 (MOLT-4)?
**A.** > 100 µM (inactive)
